# Tests used:
# [1] = tested on: ISC-enriched organoids; assay: Primary screen, 384-well 2.5-D organoid differentiation (ENR+CD, 6 days): carbachol-induced lysozyme secretion (LYZ.S); format: cell-based, murine; conditions: for Dose.FC.LYZ.S (log 2 fold change, carbachol-induced lysozyme secretion) / Dose.FC.LYZ.S (log 2 fold change): vs plate median; for Dose.FC.LYZ.S: ENR+CD, 6 days, FC vs plate median; for Dose.FC.LYZ.S (log 2 fold change) / Z.LYZ.S / SSMD.LYZ.S: primary screen; for Z.LYZ.S: standard z score; for SSMD.LYZ.S: strictly standardized mean difference
# Description: (§1) High-throughput screening.
# [2] = tested on: ISC-enriched organoids; assay: Primary screen, 384-well 2.5-D organoid differentiation (ENR+CD, 6 days, Target Selective Inhibitor Library, vs whole-plate median): ATP (CellTiter-Glo 3D, CTG); conditions: for Dose.FC.CTG (log 2 fold change, ATP) / Dose.FC.CTG (log 2 fold change): vs plate median; for Dose.FC.CTG: ENR+CD, 6 days, FC vs plate median; for SSMD.CTG: strictly standardized mean difference
# [3] = tested on: ISC-enriched organoids; assay: Primary screen, 384-well 2.5-D organoid differentiation (ENR+CD, 6 days): basal lysozyme secretion (LYZ.NS); format: cell-based, murine; conditions: for Dose.FC.LYZ.NS (log 2 fold change, basal lysozyme secretion) / Dose.FC.LYZ.NS (log 2 fold change): vs plate median; for Dose.FC.LYZ.NS: ENR+CD, 6 days, FC vs plate median; for Z.LYZ.NS: standard z score of FC; for SSMD.LYZ.NS: strictly standardized mean difference
# Description: as §1
# [4] = 1st of the 4 dose lines of the treatment (dose not given)
# [5] = 2nd of the 4 dose lines of the treatment (dose not given)
# [6] = 3rd of the 4 dose lines of the treatment (dose not given)
# [7] = 4th of the 4 dose lines of the treatment (dose not given)
# [8] = primary screen, 1st of the 4 dose lines of the treatment (dose not given)
# [9] = primary screen, 2nd of the 4 dose lines of the treatment (dose not given)
# [10] = primary screen, 3rd of the 4 dose lines of the treatment (dose not given)
# [11] = primary screen, 4th of the 4 dose lines of the treatment (dose not given)
smiles,measurement,setting,value
Cl.N[C@@H]1C[C@H]1c1ccccc1 (racemic) [Tranylcypromine (2-PCPA) HCl],"Dose.FC.LYZ.S (log 2 fold change, carbachol-induced lysozyme secretion)",[1]; dose 0.08 uM,0.050
same,"Dose.FC.LYZ.S (log 2 fold change, carbachol-induced lysozyme secretion)",[1]; dose 0.40 uM,−0.037
same,"Dose.FC.LYZ.S (log 2 fold change, carbachol-induced lysozyme secretion)",[1]; dose 2.00 uM,0.036
same,"Dose.FC.LYZ.S (log 2 fold change, carbachol-induced lysozyme secretion)",[1]; dose 10.00 uM,−0.096
same,Z.CTG (standard z score),[2]; dose 0.08 uM,−0.153
same,"Dose.FC.CTG (log 2 fold change, ATP)",[2]; dose 0.08 uM,−0.064
same,Z.CTG (standard z score),[2]; dose 0.40 uM,0.148
same,"Dose.FC.CTG (log 2 fold change, ATP)",[2]; dose 0.40 uM,0.062
same,Z.CTG (standard z score),[2]; dose 2.00 uM,0.128
same,"Dose.FC.CTG (log 2 fold change, ATP)",[2]; dose 2.00 uM,0.053
same,Z.CTG (standard z score),[2]; dose 10.00 uM,−1.274
same,"Dose.FC.CTG (log 2 fold change, ATP)",[2]; dose 10.00 uM,−0.533
same,Z.LYZ.NS (standard z score),[3]; dose 0.08 uM,0.285
same,"Dose.FC.LYZ.NS (log 2 fold change, basal lysozyme secretion)",[3]; dose 0.08 uM,0.033
same,Z.LYZ.NS (standard z score),[3]; dose 0.40 uM,−0.426
same,"Dose.FC.LYZ.NS (log 2 fold change, basal lysozyme secretion)",[3]; dose 0.40 uM,−0.049
same,Z.LYZ.NS (standard z score),[3]; dose 2.00 uM,0.423
same,"Dose.FC.LYZ.NS (log 2 fold change, basal lysozyme secretion)",[3]; dose 2.00 uM,0.049
same,Z.LYZ.NS (standard z score),[3]; dose 10.00 uM,−0.389
same,"Dose.FC.LYZ.NS (log 2 fold change, basal lysozyme secretion)",[3]; dose 10.00 uM,−0.045
CC(C)(C)c1nc(-c2cccc(NS(=O)(=O)c3c(F)cccc3F)c2F)c(-c2ccnc(N)n2)s1 [Dabrafenib (GSK2118436)],Dose.FC.LYZ.S,[1]; Dose 0.08 uM,0.236 log 2 fold change
same,Dose.FC.LYZ.S,[1]; Dose 0.40 uM,0.103 log 2 fold change
same,Dose.FC.LYZ.S,[1]; Dose 2.00 uM,0.019 log 2 fold change
same,Dose.FC.LYZ.S,[1]; Dose 10.00 uM,−0.384 log 2 fold change
same,Dose.FC.CTG,[2]; Dose 0.08 uM,−0.134 log 2 fold change
same,Z.CTG,"[2]; Dose 0.08 uM, standard z score of FC",−0.320
same,Dose.FC.CTG,[2]; Dose 0.40 uM,0.011 log 2 fold change
same,Z.CTG,"[2]; Dose 0.40 uM, standard z score of FC",0.026
same,Dose.FC.CTG,[2]; Dose 2.00 uM,−0.279 log 2 fold change
same,Z.CTG,"[2]; Dose 2.00 uM, standard z score of FC",−0.667
same,Dose.FC.CTG,[2]; Dose 10.00 uM,−0.800 log 2 fold change
same,Z.CTG,"[2]; Dose 10.00 uM, standard z score of FC",−1.911
same,Dose.FC.LYZ.NS,[3]; Dose 0.08 uM,0.095 log 2 fold change
same,Z.LYZ.NS,[3]; Dose 0.08 uM,0.830
same,Dose.FC.LYZ.NS,[3]; Dose 0.40 uM,0.049 log 2 fold change
same,Z.LYZ.NS,[3]; Dose 0.40 uM,0.427
same,Dose.FC.LYZ.NS,[3]; Dose 2.00 uM,−0.001 log 2 fold change
same,Z.LYZ.NS,[3]; Dose 2.00 uM,−0.006
same,Dose.FC.LYZ.NS,[3]; Dose 10.00 uM,−0.250 log 2 fold change
same,Z.LYZ.NS,[3]; Dose 10.00 uM,−2.178
COc1cc(Br)c(Nc2nc(-c3c(C)nc4ncccn34)cs2)c(Br)c1 [PTC-209],Dose.FC.LYZ.S (log 2 fold change),[1]; Dose 0.08 uM,0.007
same,Dose.FC.LYZ.S (log 2 fold change),[1]; Dose 0.40 uM,0.045
same,Dose.FC.LYZ.S (log 2 fold change),[1]; Dose 2.00 uM,−0.289
same,Dose.FC.LYZ.S (log 2 fold change),[1]; Dose 10.00 uM,−0.300
same,Z.CTG (standard z score),"[2]; Dose 0.08 uM, primary screen",−0.259
same,Dose.FC.CTG (log 2 fold change),"[2]; Dose 0.08 uM, primary screen",−0.108
same,Z.CTG (standard z score),"[2]; Dose 0.40 uM, primary screen",−0.495
same,Dose.FC.CTG (log 2 fold change),"[2]; Dose 0.40 uM, primary screen",−0.207
same,Z.CTG (standard z score),"[2]; Dose 2.00 uM, primary screen",−3.397
same,Dose.FC.CTG (log 2 fold change),"[2]; Dose 2.00 uM, primary screen",−1.422
same,Z.CTG (standard z score),"[2]; Dose 10.00 uM, primary screen",−3.708
same,Dose.FC.CTG (log 2 fold change),"[2]; Dose 10.00 uM, primary screen",−1.553
same,Z.LYZ.NS (standard z score),"[3]; Dose 0.08 uM, primary screen",0.294
same,Dose.FC.LYZ.NS (log 2 fold change),"[3]; Dose 0.08 uM, primary screen",0.034
same,Z.LYZ.NS (standard z score),"[3]; Dose 0.40 uM, primary screen",−0.509
same,Dose.FC.LYZ.NS (log 2 fold change),"[3]; Dose 0.40 uM, primary screen",−0.058
same,Z.LYZ.NS (standard z score),"[3]; Dose 2.00 uM, primary screen",−1.753
same,Dose.FC.LYZ.NS (log 2 fold change),"[3]; Dose 2.00 uM, primary screen",−0.201
same,Z.LYZ.NS (standard z score),"[3]; Dose 10.00 uM, primary screen",−1.975
same,Dose.FC.LYZ.NS (log 2 fold change),"[3]; Dose 10.00 uM, primary screen",−0.227
Nc1nc(OCc2cc(Br)cs2)c2[nH]cnc2n1 [Lomeguatrib],Z.LYZ.S,[1]; [4],−0.528
same,Z.LYZ.S,[1]; [5],−0.139
same,Z.LYZ.S,[1]; [6],−0.356
same,Z.LYZ.S,[1]; [7],−0.893
same,SSMD.LYZ.S,[1]; [4],−0.435
same,SSMD.LYZ.S,[1]; [5],−0.121
same,SSMD.LYZ.S,[1]; [6],−0.346
same,SSMD.LYZ.S,[1]; [7],−0.820
same,Z.CTG,"[2]; Dose 0.08 uM, primary screen, standard z score",−1.017
same,Z.CTG,"[2]; Dose 0.40 uM, primary screen, standard z score",−0.739
same,Z.CTG,"[2]; Dose 2.00 uM, primary screen, standard z score",0.178
same,Z.CTG,"[2]; Dose 10.00 uM, primary screen, standard z score",−0.192
same,SSMD.CTG,[2]; [8],−0.489
same,SSMD.CTG,[2]; [9],−0.422
same,SSMD.CTG,[2]; [10],0.193
same,SSMD.CTG,[2]; [11],−0.190
same,SSMD.LYZ.NS,[3]; [8],−0.474
same,SSMD.LYZ.NS,[3]; [9],−0.137
same,SSMD.LYZ.NS,[3]; [10],−0.189
same,SSMD.LYZ.NS,[3]; [11],−1.038

# — patent publication US20230398130A1, “METHODS AND COMPOSITIONS FOR DIFFERENTIATING STEM CELLS” (Massachusetts Institute of Technology, priority 2020, published 2023)
